Legend:
[1] = test system: Cryptococcus neoformans ATCC 90113; test: Antimicrobial microdilution assay against Cryptococcus neoformans (modified CLSI/NCCLS, optical density); assay type: cell-based; conditions: for X more potent than Amphotericin B: C. neoformans, ratio of molar IC50 to Amphotericin B; for C. neoformans IC50 / IC50: in vitro, C. neoformans ATCC 90113; for IC50: read-out: C. neoformans IC50 (mol/L)
Method in brief: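 Fungicidal endpoint taken by subculturing 5 μL from each clear well onto agar, MFC being the lowest concentration with no regrowth. Duplicate wells of serially diluted compound (20% DMSO/saline) in RPMI pH 6.0, read at 630 nm pre- and post-incubation, under modified CLSI methods. IC50 means 50% growth inhibition against controls.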

[2] = test system: methicillin-resistant S. aureus ATCC 33591 (MRS); test: Antibacterial broth dilution assay against MRSA (modified CLSI); assay type: cell-based, Staphylococcus aureus; conditions: for MRSa IC50 / IC50: in vitro; for IC50: converted with molecular weight; for X more potent than ciprofloxacen: molar IC50 ratio versus ciprofloxacen
Experimental: General Experimental Procedures. All organisms were obtained from the American Type Culture Collection (Manassas, VA) and include the fungi Candida albicans ATCC 90028, C. glabrata ATCC 90030, C. krusei ATCC 6258, and Cryptococcus neoformans ATCC 90113, and the bacteria Staphylococcus aureus ATCC 29213 and methicillin-resistant S. aureus ATCC 33591 (MRS). All organisms were tested using modified versions of the CLSI (formerly NCCLS) methods. For all organisms, optical density was used to monitor growth (NCCLS, Reference Method for Broth Dilution Antifungal Susceptibility Testing of Yeasts; Approved Standard M27-A2. National Committee on Clinical Laboratory Standards, 2002 22 (15); and NCCLS, Methods for Dilution Antimicrobial Susceptibility Tests for Bacteria that Grow Aerobically; Approved Standard, Seventh Edition M7-A7. National Committee on Clinical Laboratory Standards, 2006. 26(2)).
Samples (dissolved in DMSO) were serially-diluted in 20% DMSO/saline and transferred (10 μL) in duplicate to 96 well flat bottom microplates. Inocula were prepared by correcting the OD630 of microbe suspensions in incubation broth [RPMI 1640/0.2% dextrose/0.03% glutamine/MOPS @ pH 6.0 (Cellgro) for Candida spp., Sabouraud Dextrose for C. neoformans, and cation-adjusted Mueller-Hinton (Difco) @ pH 7.3 for Staphylococcus spp. to afford an assay volume of […] and final target inocula of: Candida spp. and C. neoformans: 1.5×10^3, and Staphylococcus spp.: 5.0×10^5 CFU/ml. Final sample test concentrations were 1/100th the DMSO stock concentration. […] All organisms were read at either 530 nm using the Biotek Powerwave XS plate reader (Bio-Tek Instruments, Vermont) prior to and after incubation: Candida spp. at 35° C. for 46-50 h, Staphylococcus spp. at 35° C. for 16-20 h, and C. neoformans at 35° C. for 70-74 h. IC50s (concentrations that afford 50% inhibition relative to controls) were calculated using XLfit 4.2 software (IDBS, Alameda, CA) using fit model 201. The MIC is defined as the lowest test concentration that allows no detectable growth. Minimum fungicidal or bactericidal concentrations were determined by removing 5 μl from each clear (or blue) well, transferring to fresh media, and incubating as previously mentioned. The MFC/MBC is defined as the lowest test concentration that kills the organism (allows no growth).
Primary Analysis. Samples were tested in duplicate at one test concentration (50 μg/mL), and percent inhibitions were calculated relative to blank and growth controls. Samples showing 50% inhibition in at least one test organism were selected for dose response (Secondary) studies.
Secondary Analysis. Extracts from the Primary Assay, and first-run pure compounds and column fractions were tested in duplicate at 3 test concentrations (5-fold dilutions). Samples dissolved to 20 mg/mL in DMSO were tested at 200, 40, and 8 μg/mL. Samples dissolved to 2 mg/mL in DMSO were tested at 20, 4, and 0.8 μg/mL.

[3] = test system: Staphylococcus aureus ATCC 29213; test: Antibacterial broth dilution assay against S. aureus (modified CLSI); assay type: cell-based; conditions: for S. aureus IC50 / IC50: in vitro; for IC50: converted with molecular weight; for X more potent than ciprofloxacen: molar IC50 ratio versus ciprofloxacen
Method in brief: (§1)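 Growth read by optical density at 530 nm, duplicate wells, 1% final DMSO. Staphylococcus spp.: Mueller-Hinton pH 7.3, 5.0×10^5 CFU/ml, 35 °C for 16-20 h; Candida spp.: RPMI/dextrose/glutamine/MOPS pH 6.0, 1.5×10^3 CFU/ml, 35 °C for 46-50 h. Reported values are 50% inhibition versus controls, no-growth MIC, and killing MFC/MBC.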

[4] = test system: S. mansoni newly transformed schistosomula (NTS); test: In vitro testing on Schistosoma mansoni newly transformed schistosomula (NTS), viability score; assay type: cell-based; conditions: NTS S. mansoni, 33 μM, 72 h
Method in brief: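 Mechanically transformed S. mansoni (Liberian strain) NTS, cultured overnight, exposed at 100 per well to compound (from 10 mM DMSO stock; ≤1% DMSO controls) at 37 °C, 5% CO2 for 72 h. Viability scored microscopically from 3 (normal activity, intact tegument) to 0 (dead, granulated).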

C. glabrata ATCC 90030 = test: Antifungal broth dilution assay against C. glabrata (modified CLSI); assay type: cell-based, Candida glabrata; conditions: for C. glabrata IC50 / IC50: in vitro; for IC50: converted with molecular weight; for X more potent than Amphotericin B: molar IC50 ratio versus amphotericin B
Method in brief: as §1

C. krusei ATCC 6258 = test: Antifungal broth dilution assay against C. krusei (modified CLSI); assay type: cell-based, Candida krusei; conditions: for X more potent than Amphotericin B: C. krusei, ratio of molar IC50 to amphotericin B; for C. krusei IC50 / IC50: in vitro; for IC50: read-out: C. krusei IC50 (mol/L)
Method in brief: as §1

[5] = test system: Plasmodium falciparum D6 clone (Sierra Leon, chloroquine-sensitive); test: In vitro antimalarial assay, chloroquine-sensitive D6 clone; assay type: cell-based; conditions: D6 clone; for IC50: converted with molecular weight, read-out: P. falciparum D6 IC50; for X more potent than chloroquine: molar IC50 ratio versus chloroquine
Experimental: (§2) The compounds were assayed for in vitro antimalarial activity against the W2 clone and D6 clone of the pathogenic Plasmodium falciparum. The strains of P. falciparum were obtained from the Division of Experimental Therapeutics, Walter Reed Army Institute of Research, Washington D.C. Strains of Sierra Leon D6 and Indochina W2 are chloroquine-sensitive and chloroquine-resistant, respectively. The parasite was grown in type A human RBCs and, two strains subcultured daily with fresh medium and blood cells. On the day of the assay, a suspension of infected blood cells (2% parasitemia and 2% hematocrit) was prepared using type A human red blood cells. Assays were performed by standard 96-well flat-bottomed microplate methods and done in duplicate at different concentrations. IC50 values were obtained from the dose curves. Artemisinin and chloroquine were included in each assay as the drug controls, and DMSO was used as vehicle control. The whole protocol was developed based on the published method of Makler. The cytotoxicity assays were also performed in parallel against the Vero cells, and the selectivity index was measured. A selectivity index of >9 was considered to indicate a lead for further development of antimalarial drug.

[6] = test system: Plasmodium falciparum W2 clone (Indochina, chloroquine-resistant); test: In vitro antimalarial assay, chloroquine-resistant W2 clone; assay type: cell-based; conditions: W2 clone; for IC50: converted with molecular weight, read-out: P. falciparum W2 IC50; for X more potent than chloroquine: molar IC50 ratio versus chloroquine
Experimental: as §2

[7] = test system: L. donovani promastigotes; test: Antileishmanial Alamar Blue assay on promastigotes; assay type: cell-based, Leishmania donovani; conditions: for X more potent than Pentamidine: L. donovani, ratio of molar IC50 to Pentamidine; for L. donovani IC50 / IC50: promastigotes, 48 hours, Alamar Blue; for IC50: read-out: L. donavani IC50
Method in brief: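 Alamar Blue fluorescence (544/590 nm) quantified growth after 48 hours at 26° C of compound-treated promastigotes. Parasites were seeded at 5×10^5/mL in RPMI 1640 plus 10% FCS; drug range 50-3.1 μg/mL, and IC50 derived by plotting percent growth against test concentration.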

SMILES	X more potent than Amphotericin B [1]	C. neoformans IC50 [1] [µg/mL]	MRSa IC50 [2] [µg/mL]	IC50 [2] [µM]	X more potent than ciprofloxacen [2]	S. aureus IC50 [3] [µg/mL]	IC50 [3] [µM]	X more potent than ciprofloxacen [3]	Effect at 72 h (%) [4] [%]	C. glabrata IC50 (C. glabrata ATCC 90030) [µg/mL]	IC50 (C. glabrata ATCC 90030) [µM]	X more potent than Amphotericin B (C. glabrata ATCC 90030)	P. falciparum D6 IC50 [5] [µg/mL]	IC50 [5] [µM]	X more potent than chloroquine [5]	P. falciparum W2 IC50 [6] [µg/mL]	IC50 [6] [µM]	X more potent than chloroquine [6]	X more potent than Pentamidine [7]	L. donovani IC50 [7] [µg/mL]	further results
CC(=O)[O-].CC(=O)[O-].CN1CCCN2CCN(CCCN(Cc3cccc(CN4CCCN5CCN(C)CCCN(CC5)CC4)c3)CC2)CC1.F[P-](F)(F)(F)(F)F.F[P-](F)(F)(F)(F)F.[Ni+2].[Ni+2] [CDG009, [Ni2(m-CB-Cyclams)(OAc)2][PF6]2]	0.07	3.530	5.410	4.88	0.04	6.27	5.66	0.05	0.00	5.150	4.65	0.31									IC50 [1]: 3.19 µM
CC(=O)[O-].CC(=O)[O-].CC(=O)[O-].F[P-](F)(F)(F)(F)F.F[P-](F)(F)(F)(F)F.F[P-](F)(F)(F)(F)F.[Co+2].[Co+2].[Co+2].c1c(CN2CCNCCN3CCN(CC3)CC2)cc(CN2CCNCCN3CCN(CC3)CC2)cc1CN1CCNCCN2CCN(CC2)CC1 [CDG021, [Co3(tris-SB-Cyclens)(OAc)3][PF6]3]	0.45	≤ 0.800							11.71	0.800	0.534	2.66									IC50 [1]: 0.534 µM; X more potent than Amphotericin B (C. krusei ATCC 6258): 0.53; C. krusei IC50 (C. krusei ATCC 6258): 4.200 µg/mL; IC50 (C. krusei ATCC 6258): 2.8 µM; times more potent than AMB (C. glabrata ATCC 90030): 2.66
CN1CCCN2CCN(CCCN(Cc3ccc(CN4CCCN5CCN(C)CCCN(CC5)CC4)cc3)CC2)CC1.[Cl-].[Cl-].[Cl-].[Cl-].[Mn+2].[Mn+2] [JGL16A]			7.770	9.31	0.02	8.090	9.69	0.03	5.41	18.600	22.3	0.06	0.7989	0.957	0.04	0.8002	0.959	0.71			
[Cl-].[Cl-].[Mn+2].c1ccc(CN2CCCN3CCN(CCCN(Cc4ccccc4)CC3)CC2)cc1 [NS06, Mn(Bn2Bcyclam)Cl2]			1.510	2.84	0.07	2.310	4.34	0.06	81.08				0.0838	0.157	0.23	0.0674	0.127	5.36	0.13	21.99	IC50 [7]: 41.3 µM
[Cl-].[Cl-].[Mn+2].c1ccc(CN2CCN3CCN(CC2)CCN(Cc2ccccc2)CC3)cc1 [NS29, Mn(Bn2Bcyclen)Cl2]			5.750	11.4	0.02	5.880	11.7	0.02	43.24				0.1337	0.265	0.14	0.2747	0.545	1.25	0.35	7.70	IC50 [7]: 15.3 µM
CC(=O)[O-].CC(=O)[O-].CN1CCCN2CCN(CCCN(Cc3cccc(CN4CCCN5CCN(C)CCCN(CC5)CC4)c3)CC2)CC1.F[P-](F)(F)(F)(F)F.F[P-](F)(F)(F)(F)F.[Zn+2].[Zn+2] [RM51, [Zn2(m-CB-Cyclams)(OAc)2][PF6]2]	0.14	1.850	3.190		0.07	6.17		0.05	0.00										0.30	19.82	
CC(=O)[O-].F[P-](F)(F)(F)(F)F.[Ni+2].c1ccc(CN2CCCN3CCN(CCCN(Cc4ccccc4)CC3)CC2)cc1 [TC09, [Ni(Bn2Bcyclam)(OAc)]PF6]									43.24				0.552	0.825	0.04	0.8876	1.33	0.51	0.55	6.51	IC50 [7]: 9.73 µM; X more potent than Amphotericin B (C. krusei ATCC 6258): 0.22; C. krusei IC50 (C. krusei ATCC 6258): 4.520 µg/mL; IC50 (C. krusei ATCC 6258): 6.75 µM
CC(=O)[O-].CC(=O)[O-].CN1CCCN2CCN(CCCN(Cc3ccc(CN4CCCN5CCN(C)CCCN(CC5)CC4)cc3)CC2)CC1.F[P-](F)(F)(F)(F)F.F[P-](F)(F)(F)(F)F.[Cu+2].[Cu+2] [TJH384A, [Cu2(p-CB-cyclams)(OAc)2](PF6)2]	0.38	0.700							5.41	14.590	13.1	0.11									IC50 [1]: 0.626 µM; X more potent than Amphotericin B (C. krusei ATCC 6258): 0.25; C. krusei IC50 (C. krusei ATCC 6258): 6.760 µg/mL; IC50 (C. krusei ATCC 6258): 6.05 µM

Reference: patent US12139481B2, “Compositions comprising macrocycle derivatives incorporating bridged macrocycles and methods of producing and using same” (Southwestern Oklahoma State University, priority 2015, dated 2024)
